Results taken from patent US11040981B2, “Pyrrolotriazine compounds and methods of inhibiting TAM kinases” (Syros Pharmaceuticals, Inc., priority 2017, dated 2021).

How the values were obtained:
AXL = target: T1, AXL (Homo sapiens, UniProt P30530); test: TR-FRET kinase activity assay, AXL; type: biochemical; conditions: ATP at Km, 60 minutes
T1 sequence (P30530 26-894): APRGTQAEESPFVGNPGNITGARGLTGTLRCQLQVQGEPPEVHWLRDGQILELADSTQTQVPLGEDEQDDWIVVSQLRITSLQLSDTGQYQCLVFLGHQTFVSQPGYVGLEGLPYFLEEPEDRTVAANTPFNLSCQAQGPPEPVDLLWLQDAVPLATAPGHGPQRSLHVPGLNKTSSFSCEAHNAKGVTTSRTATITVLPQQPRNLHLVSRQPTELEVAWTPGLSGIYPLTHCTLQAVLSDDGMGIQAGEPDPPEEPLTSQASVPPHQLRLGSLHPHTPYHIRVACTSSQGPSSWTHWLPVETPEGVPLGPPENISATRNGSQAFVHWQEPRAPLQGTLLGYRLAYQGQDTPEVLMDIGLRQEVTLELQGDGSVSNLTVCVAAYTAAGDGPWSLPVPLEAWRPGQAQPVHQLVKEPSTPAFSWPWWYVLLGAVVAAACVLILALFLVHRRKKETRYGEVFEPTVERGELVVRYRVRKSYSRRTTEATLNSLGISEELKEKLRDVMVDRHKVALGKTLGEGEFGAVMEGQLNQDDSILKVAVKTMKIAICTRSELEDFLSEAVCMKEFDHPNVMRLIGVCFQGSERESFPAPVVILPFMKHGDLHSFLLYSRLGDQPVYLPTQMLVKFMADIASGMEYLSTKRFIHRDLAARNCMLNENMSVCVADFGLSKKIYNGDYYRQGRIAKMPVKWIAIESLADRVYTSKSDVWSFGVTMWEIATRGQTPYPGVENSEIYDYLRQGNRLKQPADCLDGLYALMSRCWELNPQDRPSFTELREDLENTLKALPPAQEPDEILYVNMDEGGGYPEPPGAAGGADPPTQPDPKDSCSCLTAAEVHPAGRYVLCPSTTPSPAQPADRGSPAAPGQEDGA
Method in brief: (§1)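 Each kinase phosphorylated a fluorescent-labelled tyrosine peptide in 50 mM HEPES pH 7.5, 10 mM MgCl2, 1 mM EGTA, 0.01% Brij 35, 1 mM DTT at RT, with ATP at Km for that enzyme. After 60 min, EDTA quench and Eu-anti-phosphotyrosine antibody (30 min, dark); IC50 from TR-FRET decrease.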

TYRO3 = target: T2, TYRO3 (Homo sapiens, UniProt Q06418); test: TR-FRET kinase activity assay, TYRO3; type: biochemical; conditions: ATP at Km, 60 minutes
T2 sequence (Q06418 41-890): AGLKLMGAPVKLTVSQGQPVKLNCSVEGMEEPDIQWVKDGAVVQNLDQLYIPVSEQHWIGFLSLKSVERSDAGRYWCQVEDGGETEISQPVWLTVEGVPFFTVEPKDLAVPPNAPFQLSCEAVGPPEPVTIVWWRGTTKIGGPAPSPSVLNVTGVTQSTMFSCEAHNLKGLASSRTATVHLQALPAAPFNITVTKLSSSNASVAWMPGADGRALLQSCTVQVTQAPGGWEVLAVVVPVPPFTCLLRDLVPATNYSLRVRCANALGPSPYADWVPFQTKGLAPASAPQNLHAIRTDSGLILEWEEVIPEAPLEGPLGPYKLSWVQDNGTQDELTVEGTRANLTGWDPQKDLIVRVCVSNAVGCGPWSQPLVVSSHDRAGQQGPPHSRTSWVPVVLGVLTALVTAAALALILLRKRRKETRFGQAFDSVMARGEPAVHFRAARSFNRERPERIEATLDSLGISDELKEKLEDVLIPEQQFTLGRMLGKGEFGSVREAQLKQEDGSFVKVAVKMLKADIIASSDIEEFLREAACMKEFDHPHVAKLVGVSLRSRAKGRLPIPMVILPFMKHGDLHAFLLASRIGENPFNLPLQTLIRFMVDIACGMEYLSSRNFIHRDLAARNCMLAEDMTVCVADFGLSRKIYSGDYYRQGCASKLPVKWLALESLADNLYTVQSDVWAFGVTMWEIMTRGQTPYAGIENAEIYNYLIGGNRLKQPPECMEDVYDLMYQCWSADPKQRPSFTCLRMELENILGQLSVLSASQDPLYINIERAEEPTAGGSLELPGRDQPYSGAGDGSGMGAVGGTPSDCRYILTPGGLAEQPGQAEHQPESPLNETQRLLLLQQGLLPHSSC
Method in brief: as §1

| Compound | IC50 (AXL) | IC50 (TYRO3) |
| --- | --- | --- |
| CC(CC#N)Nc1ncc2c(-c3ccc(CN4CCN(C)CC4)cc3)cc(C3CCC(O)CC3)n2n1 (stereo not shown) [Compound 145] | ≤ 100 nM | ≤ 100 nM |
| COCC(C)Nc1ncc2c(-c3ccc(C4(C(=O)N5CCS(=O)(=O)CC5)CC4)cc3)cc(C3CCC(O)CC3)n2n1 (stereo not shown) [Compound 172] | ≤ 100 nM | ≤ 100 nM |
| COC[C@H](C)Nc1ncc2c(-c3cnn(C4COC4)c3)cc([C@H]3CC[C@H](O)C(F)(F)C3)n2n1 [Compound 614] | ≤ 100 nM | ≤ 100 nM |
| COC[C@H](C)Nc1ncc2c(-c3ccc(C4(N5CCOCC5)CC4)cc3)cc([C@H]3CC[C@H](O)CC3)n2n1 [Compound 184] | 100 to 1000 nM | ≤ 100 nM |
| COC[C@H](C)N(C)c1ncc2c(-c3ccnc(C)c3)cc([C@H]3CC[C@H](O)CC3)n2n1 [Compound 175, (trans)-4-(2-(((S)-1-methoxypropan-2-yl)(methyl)amino)-5-(2-methylpyridin-4-yl)pyrrolo[2,1-f][1,2,4]triazin-7-yl)cyclohexanol] | 1000 to 10000 nM | 1000 to 10000 nM |
| COCC1(Nc2ncc3c(-c4ccc(CN5CCN(C)CC5)cc4)cc(C4CCC(O)CC4)n3n2)CC1 (stereo not shown) [Compound 149] | 100 to 1000 nM | ≤ 100 nM |
| C[C@@H](COC(F)F)Nc1ncc2c(-c3ccnc(N4CCO[C@@H](C(C)(C)O)C4)c3)cc([C@H]3CC[C@H](O)CC3)n2n1 [Compound 597] | ≤ 100 nM | ≤ 100 nM |
| C[C@@H](COC(F)F)Nc1ncc2c(-c3cnn(C(C)(C)C(=O)N4CC5(COC5)C4)c3)cc([C@H]3CC[C@H](O)CC3)n2n1 [Compound 613] | ≤ 100 nM | ≤ 100 nM |
| C[C@@H](CC(F)(F)F)Nc1ncc2c(-c3cnn(C(C)(C)C(=O)C4COC4)c3)cc([C@H]3CC[C@@](C)(O)CC3)n2n1 [Compound 609] | ≤ 100 nM | ≤ 100 nM |
| C[C@@H](CC(F)(F)F)Nc1ncc2c(-c3cnn(C(C)(C)C(=O)N4CCN(C)CC4)c3)cc(C3CCC(O)CC3)n2n1 (stereo partly shown) [Compound 626] | ≤ 100 nM | ≤ 100 nM |
| COC[C@H](C)N(C)c1ncc2c(-c3ccnc(C)c3)cc([C@H]3CC[C@H](OC)CC3)n2n1 [Compound 176, 7-((trans)-4-methoxycyclohexyl)-N-((S)-1-methoxypropan-2-yl)-N-methyl-5-(2-methylpyridin-4-yl)pyrrolo[2,1-f][1,2,4]triazin-2-amine] | 1000 to 10000 nM | 1000 to 10000 nM |
| COC[C@H](C)Nc1ncc2c(-c3ccnc(C)c3)cc([C@H]3CC[C@@H](O)CC3)n2n1 [Compound 183] | 100 to 1000 nM | ≤ 100 nM |
| CCC1(O)CCC(c2cc(-c3cnn(C4COC4)c3)c3cnc(NC(C)COC)nn23)CC1 (stereo not shown) [Compound 615] | ≤ 100 nM | ≤ 100 nM |
| COC[C@H](C)Nc1ncc2c(-c3cnn(Cc4nnc(C)s4)c3)cc([C@H]3CC[C@H](O)CC3)n2n1 [Compound 596] | ≤ 100 nM | ≤ 100 nM |
| COC[C@H](C)Nc1ncc2c(-c3cnn(C)c3)cc([C@H]3CC[C@H](O)CC3)n2n1 [Compound 152] | ≤ 100 nM | ≤ 100 nM |
| COC[C@H](C)Nc1ncc2c(-c3ccc(C(=O)N4CCN(C)CC4)cc3)cc([C@H]3CC[C@H](O)CC3)n2n1 [Compound 144] | ≤ 100 nM | ≤ 100 nM |
| COC[C@H](C)Nc1ncc2c(-c3ccc([C@H](C)N4CCCC4)cc3)cc([C@H]3CC[C@H](O)CC3)n2n1 [Compound 165] | ≤ 100 nM | ≤ 100 nM |
| CCOC(=O)Cn1cc(-c2cc([C@H]3CC[C@H](O)CC3)n3nc(N[C@@H](C)COC)ncc23)cn1 [Compound 159] | ≤ 100 nM | ≤ 100 nM |
| COC[C@H](C)Nc1ncc2c(-c3ccnc(N4CCC(C)(O)CC4)c3)cc([C@H]3CC[C@H](O)CC3)n2n1 [Compound 605] | ≤ 100 nM | ≤ 100 nM |
| COC[C@H](C)Nc1ncc2c(-c3cnn(C(C)(C)c4nnc(C(F)F)o4)c3)cc([C@H]3CC[C@H](O)CC3)n2n1 [Compound 599] | ≤ 100 nM | ≤ 100 nM |
